# Assay results published in the supplement of paper PMC10307832.
# Tests used:
# Test in all cases: relative viability (nuclei count vs DMSO), 5 days (fraction); higher = more cells survive
# [1] = compound: Cn1cc(-c2cnn3c(N)c(Br)c([C@@H]4CCCNC4)nc23)cn1 + O=C(c1cc(Cc2n[nH]c(=O)c3ccccc23)ccc1F)N1CCN(C(=O)C2CC2)CC1 [Olaparib] (partner 8 µM)
# Outline: (§1)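 Lung cancer cell lines, seeded in 1536-well plates, were treated the following day by pin tool with a single drug or with five library-drug doses (not always all listed) in √10 steps on top of a fixed anchor-drug dose. Cells were fixed and nuclei stained in one step after 5 days, and nuclei were counted. Relative viability is the nuclei count for treated wells divided by that for vehicle wells, reported as medians of duplicate plates.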
# [2] = compound: Cn1cc(-c2cnn3c(N)c(Br)c([C@@H]4CCCNC4)nc23)cn1 + N=C(N)NC(=N)NCCc1ccccc1 [Phenformin] (partner 250 µM)
# Outline: as §1
# [3] = compound: Cn1cc(-c2cnn3c(N)c(Br)c([C@@H]4CCCNC4)nc23)cn1 + CS(=O)(=O)CCNCc1ccc(-c2ccc3ncnc(Nc4ccc(OCc5cccc(F)c5)c(Cl)c4)c3c2)o1 [Lapatinib] (partner 2 µM)
# Outline: as §1
# [4] = compound: Cn1cc(-c2cnn3c(N)c(Br)c([C@@H]4CCCNC4)nc23)cn1 + CC(=O)Nc1cccc(-n2c(=O)n(C3CC3)c(=O)c3c(Nc4ccc(I)cc4F)n(C)c(=O)c(C)c32)c1 [Trametinib] (partner 0.02 µM)
# Outline: as §1
Cell Line,relative viability ([1]; first compound 0.05 µM),relative viability ([1]; first compound 0.1581 µM),relative viability ([1]; first compound 0.5 µM),relative viability ([1]; first compound 1.581 µM),relative viability ([1]; first compound 5 µM),relative viability ([2]; first compound 0.05 µM),relative viability ([2]; first compound 0.1581 µM),relative viability ([2]; first compound 0.5 µM),relative viability ([2]; first compound 1.581 µM),relative viability ([2]; first compound 5 µM),relative viability ([3]; first compound 0.05 µM),relative viability ([3]; first compound 0.1581 µM),relative viability ([3]; first compound 0.5 µM),relative viability ([3]; first compound 1.581 µM),relative viability ([3]; first compound 5 µM),relative viability ([4]; first compound 0.05 µM),relative viability ([4]; first compound 0.1581 µM),relative viability ([4]; first compound 0.5 µM),relative viability ([4]; first compound 1.581 µM),relative viability ([4]; first compound 5 µM)
NCI-H661,0.874,0.83,0.745,0.511,0.538,0.273,0.259,0.29,0.283,0.276,0.441,0.503,0.518,0.48,0.324,0.562,0.59,0.495,0.534,0.478
NCI-H1993,0.959,1.05,1.01,0.969,1.1,0.522,0.536,0.412,0.481,0.513,0.634,0.858,,0.739,0.759,0.518,0.467,0.643,0.435,0.511
NCI-H1437,0.664,0.726,0.71,0.646,0.595,0.272,0.296,0.32,0.214,0.229,0.802,0.975,0.741,0.563,0.505,0.504,0.611,0.562,0.428,0.355
UMC-11,0.429,0.399,0.41,0.381,0.34,0.337,0.309,0.32,0.305,0.274,1.09,1,0.699,0.624,0.463,0.753,0.684,0.502,0.579,0.402
201T,0.888,0.836,0.803,0.743,0.719,0.452,0.517,0.429,0.366,0.405,1,1.09,1.02,0.951,1.11,0.692,0.751,0.687,0.722,0.7
NCI-H358,0.675,0.643,0.598,0.372,0.414,0.293,0.344,0.308,0.216,0.261,0.465,0.477,0.446,0.46,0.378,0.132,0.115,0.122,0.102,0.121
NCI-H1650,0.625,0.82,0.851,0.616,0.444,,0.505,0.403,0.33,0.218,0.854,0.882,0.711,0.64,0.428,0.559,0.551,0.487,0.405,0.428
LOU-NH91,0.938,0.933,0.867,0.774,0.778,0.668,0.657,0.679,0.706,0.562,0.785,0.694,0.761,0.713,0.619,0.804,0.776,0.751,0.749,0.665
HOP-62,0.321,0.262,0.208,0.241,0.199,0.648,0.866,0.737,0.527,0.62,1.05,1.27,1.08,0.896,0.792,0.354,0.376,0.404,0.339,0.34
NCI-H1915,0.312,0.268,0.299,0.261,0.236,0.344,0.377,0.36,0.357,0.379,1,0.959,0.989,0.825,0.954,0.479,0.313,0.304,0.347,0.301
NCI-H3122,0.647,0.674,0.598,0.635,0.563,0.374,0.62,0.383,0.366,0.383,1.1,1.07,1.07,1.04,1.05,0.267,0.236,0.212,0.223,0.257
NCI-H1651,0.17,0.146,0.166,0.164,0.145,0.331,0.336,0.318,0.223,0.173,0.733,0.874,0.708,0.494,0.367,0.885,0.925,0.88,0.857,0.461
NCI-H838,0.79,0.911,0.797,0.611,0.648,0.483,0.66,0.552,0.324,0.554,0.955,1.15,0.964,0.667,0.775,0.501,0.521,0.496,0.505,0.471
NCI-H596,0.633,0.596,0.622,0.655,0.621,0.865,0.825,0.729,0.561,0.691,1.15,1.09,1.06,0.972,1,0.899,0.832,0.886,0.768,0.832
SK-LU-1,0.515,0.308,0.31,0.246,0.226,0.515,0.426,0.299,0.254,0.184,0.871,0.585,0.758,0.321,0.19,0.616,0.423,0.422,0.328,0.292
NCI-H650,0.427,0.557,0.523,0.551,0.397,0.426,0.413,0.447,0.486,0.399,0.802,0.831,1.03,0.652,0.503,0.913,1.01,0.957,0.901,0.82
SK-MES-1,0.879,0.596,0.441,0.34,0.2,0.664,0.735,0.663,0.419,0.188,0.491,0.544,0.514,0.392,0.431,0.595,0.567,0.607,0.346,0.222

Cell Line,relative viability ([1]; first compound 0.05 µM),relative viability ([1]; first compound 0.1581 µM),relative viability ([1]; first compound 0.5 µM),relative viability ([1]; first compound 1.581 µM),relative viability ([1]; first compound 5 µM),relative viability ([2]; first compound 0.05 µM),relative viability ([2]; first compound 0.1581 µM),relative viability ([2]; first compound 0.5 µM),relative viability ([2]; first compound 1.581 µM),relative viability ([2]; first compound 5 µM),relative viability ([3]; first compound 0.05 µM),relative viability ([3]; first compound 0.1581 µM),relative viability ([3]; first compound 0.5 µM),relative viability ([3]; first compound 1.581 µM),relative viability ([3]; first compound 5 µM),relative viability ([4]; first compound 0.05 µM),relative viability ([4]; first compound 0.1581 µM),relative viability ([4]; first compound 0.5 µM),relative viability ([4]; first compound 1.581 µM),relative viability ([4]; first compound 5 µM)
NCI-H1792,0.637,0.368,0.378,,0.34,0.189,0.345,0.261,0.203,0.236,0.84,1.06,0.335,0.718,0.784,0.409,0.6,0.536,,0.513
NCI-H1355,0.811,0.89,0.788,0.795,0.69,0.428,0.51,0.467,0.366,0.415,1,1.08,0.92,0.969,0.859,0.369,0.426,0.433,0.491,0.417
SW 1573,0.476,0.562,0.44,0.401,0.457,0.388,0.381,0.325,0.215,0.219,1.14,1.22,1.15,1.01,1.1,0.538,0.642,0.558,0.506,0.516
NCI-H2347,0.626,0.695,0.53,0.629,0.611,0.338,0.396,0.406,0.449,0.337,0.919,1.03,1.05,0.902,0.645,0.272,0.285,0.298,0.251,0.232
LCLC-97TM1,0.346,0.605,0.327,0.382,0.38,0.499,0.47,0.464,0.458,0.411,0.86,1.3,0.976,0.915,0.774,0.151,0.202,0.182,0.207,0.224
EMC-BAC-2,0.492,0.521,0.47,0.383,0.475,0.515,0.509,0.505,0.405,0.461,0.843,0.987,0.961,0.852,0.889,0.885,0.664,0.927,0.878,0.515
NCI-H1975,0.841,0.792,0.7,0.581,0.708,0.44,0.435,0.443,0.338,0.356,0.888,0.862,0.835,0.635,0.798,0.356,0.328,0.326,0.331,0.239
BEN,1.14,1.12,1.17,1.01,0.905,0.249,0.213,0.288,0.268,0.284,0.84,0.762,0.655,0.736,0.516,1.19,1.01,0.907,0.966,0.881
NCI-H23,0.283,0.286,0.229,0.227,0.174,0.834,0.713,0.835,0.747,0.187,1.08,1.23,1.02,0.825,0.267,0.364,0.401,0.304,0.355,0.178
NCI-H520,0.353,0.367,0.302,0.326,0.236,0.52,0.587,0.596,0.461,0.348,0.819,0.685,0.649,0.705,0.707,0.685,0.642,0.591,0.699,0.542
CAL-12T,0.835,0.752,0.824,0.398,0.268,0.478,0.585,0.537,0.377,0.155,0.713,0.735,0.723,0.618,0.395,0.288,0.346,0.315,0.33,0.278
EPLC-272H,0.709,0.683,0.294,0.279,0.215,0.288,0.275,0.321,0.292,0.188,0.849,0.991,0.843,0.688,0.674,0.276,0.273,0.286,0.272,0.218
NCI-H2405,0.875,0.954,0.901,0.857,0.659,0.384,0.522,0.398,0.363,0.318,1.06,1.17,1.01,0.993,0.85,0.642,0.644,0.553,0.577,0.455
HCC-15,0.832,0.797,0.837,0.867,0.973,0.494,0.524,0.429,0.406,0.349,0.952,0.949,0.648,0.811,0.827,0.38,0.421,0.379,0.393,0.409
PC-3 [JPC-3],1.14,1.02,,1.09,1.15,0.444,0.476,0.443,0.448,0.455,0.423,0.504,0.474,0.416,0.482,0.693,0.705,,0.642,0.608
NCI-H1944,0.408,0.448,0.374,0.378,0.349,0.212,0.199,0.198,0.194,0.186,0.823,0.832,0.761,0.605,0.577,0.406,0.382,0.39,0.374,0.379
